Source: ChEMBL document CHEMBL4219121, “Synthesis, antitumor activity and DNA binding features of benzothiazolyl and benzimidazolyl substituted isoindolines” (Bioorg Med Chem, 2018)
The source made the active and inactive calls. The calls are words filed in the database; no cut-off is given here.

Key:
BJ = assay: Antiproliferative activity against human BJ cells after 72 hrs by MTT assay; assay type: cell-based
[1] = Drug uptake in human Caki2 cells at 50 uM measured after 5 hrs by Phalloidin CruzFluorTM 488 conjugate/propidium iodide staining based fluorescence microscopic analysis; assay type: ADME, cell-based; settings: caki-2, 5 h
HeLa [2] = assay: Antiproliferative activity against human HeLa cells after 72 hrs by MTT assay; assay type: functional, cell-based
HeLa [3] = assay: Cell cycle arrest in human HeLa cells assessed as accumulation at subG1 phase at 0.5 to 1 uM after 24 hrs by propidium iodide staining based flow cytometric method; assay type: functional
[4] = Drug uptake in cytoplasm of human Caki2 cells at 50 uM measured after 5 hrs by Phalloidin CruzFluorTM 488 conjugate/propidium iodide staining based fluorescence microscopic analysis; assay type: ADME, subcellular; settings: caki-2, 5 h
MCF7 = assay: Antiproliferative activity against human MCF7 cells after 72 hrs by MTT assay; assay type: functional, cell-based; settings: MCF7, 72 h
SW-620 [5] = assay: Cell cycle arrest in human SW620 cells assessed as accumulation at subG1 phase at 1 uM after 48 hrs by propidium iodide staining based flow cytometric method (reference value: 4.1 to 11.3 %); assay type: functional
HeLa [6] = assay: Cell cycle arrest in human HeLa cells assessed as accumulation at subG1 phase at 1 uM after 48 hrs by propidium iodide staining based flow cytometric method (reference value: 17 to 20.1 %); assay type: functional
Calf thymus DNA [7] = assay: Binding affinity to calf thymus DNA assessed as change in melting temperature at drug/DNA ratio of 1 by spectrophotmetric method; assay type: nucleic-acid assay; settings: Bos taurus
SW-620 [8] = assay: Induction of apoptosis in human SW620 cells assessed as phenotypic changes after 24 to 48 hrs by microscopic analysis; assay type: functional, cell-based
SW-620 [9] = assay: Induction of apoptosis in human SW620 cells assessed as activation of caspase-6 at 0.5 uM measured after 48 hrs by colorimetric assay; assay type: functional, cell-based
HeLa [10] = assay: Cell cycle arrest in human HeLa cells assessed as accumulation at subG1 phase at 0.5 uM after 48 hrs by propidium iodide staining based flow cytometric method (reference value: 17 to 20.1 %); assay type: functional
CAKI-2 = assay: Cytotoxicity against human Caki2 cells after 72 hrs by MTT assay; assay type: functional, cell-based; settings: CAKI-2, 72 h
[11] = Drug uptake in nucleus of human Caki2 cells at 50 uM measured after 5 hrs by Phalloidin CruzFluorTM 488 conjugate/propidium iodide staining based fluorescence microscopic analysis; assay type: ADME, subcellular; settings: caki-2, 5 h
Calf thymus DNA [12] = assay: Binding affinity to calf thymus DNA at 1 to 50 uM by circular dichroism spectral analysis; assay type: nucleic-acid assay; settings: Bos taurus
HeLa [13] = assay: Induction of apoptosis in human HeLa cells assessed as activation of caspase-8 at 0.5 uM after 24 to 48 hrs by colorimetric assay; assay type: functional, cell-based
HepG2 = assay: Antiproliferative activity against human HepG2 cells after 72 hrs by MTT assay; assay type: functional, cell-based; settings: HepG2, 72 h
SW-620 [14] = assay: Induction of apoptosis in human SW620 cells assessed as activation of caspase-8 at 0.5 uM after 24 to 48 hrs by colorimetric assay; assay type: functional, cell-based
[15] = molecular target: DNA topoisomerase 2-alpha (Homo sapiens) (UniProt P11388); assay: Poison activity at human topoisomerase2 assessed as accumulation of linear DNA at 10 to 50 uM using supercoiled pUC19 as substrate pretreated with substrate for 45 mins followed by […] measured by ethidium bromide staining based agarose gel electrophoresis
Calf thymus DNA [16] = assay: Binding affinity to calf thymus DNA assessed as change in melting temperature at drug/DNA ratio of 0.5 by spectrophotmetric method; assay type: nucleic-acid assay; settings: Bos taurus
SW-620 [17] = assay: Antiproliferative activity against human SW620 cells after 72 hrs by MTT assay; assay type: functional, cell-based; settings: SW-620, 72 h
SW-620 [18] = assay: Cell cycle arrest in human SW620 cells assessed as accumulation at subG1 phase at 0.5 uM after 48 hrs by propidium iodide staining based flow cytometric method (reference value: 4.1 to 11.3 %); assay type: functional
HeLa [19] = assay: Induction of apoptosis in human HeLa cells assessed as phenotypic changes after 24 to 48 hrs by microscopic analysis; assay type: functional, cell-based
SW-620 [20] = assay: Induction of apoptosis in human SW620 cells assessed as activation of caspase-2 at 0.5 uM measured after 48 hrs by colorimetric assay; assay type: functional, cell-based
Calf thymus DNA [21] = assay: Binding affinity to calf thymus DNA assessed as change in melting temperature at drug/DNA ratio of 0.25 by spectrophotmetric method; assay type: nucleic-acid assay; settings: Bos taurus
SW-620 [22] = assay: Cell cycle arrest in human SW620 cells assessed as accumulation at subG1 phase at 0.5 to 1 uM after 24 hrs by propidium iodide staining based flow cytometric method; assay type: functional
[23] = Drug uptake in nucleolus of human Caki2 cells at 50 uM measured after 5 hrs by Phalloidin CruzFluorTM 488 conjugate/propidium iodide staining based fluorescence microscopic analysis; assay type: ADME, subcellular; settings: caki-2, 5 h
[24] = molecular target: T1, DNA topoisomerase 1 (Homo sapiens) (UniProt P11387); assay: Poison activity at human topoisomerase1 assessed as accumulation of nicked DNA at 20 uM using supercoiled pUC19 as substrate pretreated with substrate for 45 mins followed by enzyme addition measured by agarose gel electrophoresis relative to control
T1 sequence (whole entry): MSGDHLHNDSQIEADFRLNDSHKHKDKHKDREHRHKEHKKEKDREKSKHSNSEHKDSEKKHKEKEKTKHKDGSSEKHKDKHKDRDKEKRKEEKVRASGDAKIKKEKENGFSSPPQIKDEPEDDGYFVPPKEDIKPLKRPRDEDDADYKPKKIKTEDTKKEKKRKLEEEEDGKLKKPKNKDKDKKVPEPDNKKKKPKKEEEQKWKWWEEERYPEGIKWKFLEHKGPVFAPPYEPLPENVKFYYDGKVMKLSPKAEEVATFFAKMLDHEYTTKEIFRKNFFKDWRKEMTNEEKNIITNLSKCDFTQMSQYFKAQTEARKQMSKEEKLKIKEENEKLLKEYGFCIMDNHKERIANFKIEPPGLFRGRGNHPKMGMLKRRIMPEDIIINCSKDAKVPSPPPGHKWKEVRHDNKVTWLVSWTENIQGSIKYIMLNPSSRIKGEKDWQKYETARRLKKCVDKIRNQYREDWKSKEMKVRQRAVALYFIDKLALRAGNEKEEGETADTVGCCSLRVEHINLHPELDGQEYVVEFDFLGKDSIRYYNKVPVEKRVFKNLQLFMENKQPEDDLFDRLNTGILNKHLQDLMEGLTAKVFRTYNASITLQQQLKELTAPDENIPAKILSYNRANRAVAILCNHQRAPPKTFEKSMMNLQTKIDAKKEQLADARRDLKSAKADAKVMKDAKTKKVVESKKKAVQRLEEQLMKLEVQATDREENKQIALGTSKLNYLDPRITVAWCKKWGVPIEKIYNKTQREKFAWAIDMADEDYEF

[25] = molecular target: T1, DNA topoisomerase 1 (Homo sapiens); assay: Inhibition of human topoisomerase1-mediated DNA relaxation assessed as DNA intercalation at 5 to 50 uM using supercoiled pUC19 as substrate pretreated with substrate for 45 mins followed by enzyme addition measured by agarose gel electrophoresis

Sequence of DNA topoisomerase 2-alpha (Homo sapiens) (P11388 whole entry): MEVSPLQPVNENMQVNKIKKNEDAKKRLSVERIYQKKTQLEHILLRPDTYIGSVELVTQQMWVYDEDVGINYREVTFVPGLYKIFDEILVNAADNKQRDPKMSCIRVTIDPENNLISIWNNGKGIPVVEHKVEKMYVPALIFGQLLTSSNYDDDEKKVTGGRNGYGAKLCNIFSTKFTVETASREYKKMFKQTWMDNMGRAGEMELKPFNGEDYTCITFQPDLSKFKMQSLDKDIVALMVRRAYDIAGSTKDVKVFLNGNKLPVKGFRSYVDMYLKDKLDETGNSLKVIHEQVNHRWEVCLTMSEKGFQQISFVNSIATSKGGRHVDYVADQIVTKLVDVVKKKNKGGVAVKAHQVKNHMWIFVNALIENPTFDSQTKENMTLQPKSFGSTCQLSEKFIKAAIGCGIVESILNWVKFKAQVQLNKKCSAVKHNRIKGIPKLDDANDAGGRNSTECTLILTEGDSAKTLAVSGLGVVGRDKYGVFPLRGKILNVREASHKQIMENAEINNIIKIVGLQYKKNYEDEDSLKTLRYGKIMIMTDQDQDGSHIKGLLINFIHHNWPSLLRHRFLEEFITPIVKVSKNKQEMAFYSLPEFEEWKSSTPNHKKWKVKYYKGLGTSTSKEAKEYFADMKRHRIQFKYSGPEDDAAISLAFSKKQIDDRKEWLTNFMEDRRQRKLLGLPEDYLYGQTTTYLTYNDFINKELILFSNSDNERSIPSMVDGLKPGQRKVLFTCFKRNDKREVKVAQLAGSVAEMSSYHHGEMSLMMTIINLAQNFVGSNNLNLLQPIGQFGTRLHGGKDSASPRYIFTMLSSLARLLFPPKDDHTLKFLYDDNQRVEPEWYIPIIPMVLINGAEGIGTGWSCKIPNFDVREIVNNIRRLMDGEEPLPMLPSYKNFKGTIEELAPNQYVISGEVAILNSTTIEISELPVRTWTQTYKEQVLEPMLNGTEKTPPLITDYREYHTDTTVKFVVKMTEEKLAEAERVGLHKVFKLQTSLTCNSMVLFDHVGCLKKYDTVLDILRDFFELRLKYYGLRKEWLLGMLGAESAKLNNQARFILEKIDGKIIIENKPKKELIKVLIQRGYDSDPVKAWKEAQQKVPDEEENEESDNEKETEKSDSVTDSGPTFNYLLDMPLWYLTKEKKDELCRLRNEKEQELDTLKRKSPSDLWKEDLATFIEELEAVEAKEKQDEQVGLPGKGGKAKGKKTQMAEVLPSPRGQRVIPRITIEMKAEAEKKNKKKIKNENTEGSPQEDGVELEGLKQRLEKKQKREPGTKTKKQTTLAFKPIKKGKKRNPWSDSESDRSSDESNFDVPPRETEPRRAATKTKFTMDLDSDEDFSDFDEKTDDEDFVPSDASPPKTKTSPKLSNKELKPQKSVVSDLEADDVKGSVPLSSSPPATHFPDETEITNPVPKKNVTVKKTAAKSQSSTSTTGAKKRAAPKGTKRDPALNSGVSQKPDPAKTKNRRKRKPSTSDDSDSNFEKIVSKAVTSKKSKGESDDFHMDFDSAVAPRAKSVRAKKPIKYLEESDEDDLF

Row | SMILES | IC50 (BJ) [µM] | Drug uptake [1] | IC50 (HeLa [2]) [µM] | IC50 (MCF7) [µM] | IC50 (CAKI-2) [µM] | Drug uptake [11] | Activity (Calf thymus DNA [12]) | IC50 (HepG2) [µM] | ΔTm (Calf thymus DNA [16]) [°C] | IC50 (SW-620 [17]) [µM] | ΔTm (Calf thymus DNA [21]) [°C] | also measured
1 | CC(C)NC(=N)c1ccc2nc(N3Cc4ccccc4C3=O)sc2c1.Cl | 0.05 | Active | 0.32 | 0.36 | 0.75 | Active | Active | 0.34 | 3.2 | 0.15 | 1.2 | Activity (HeLa [3]): inactive; Drug uptake [4]: Active; Activity (SW-620 [5]): 59.9%; Activity (HeLa [6]): 38.1%; ΔTm (Calf thymus DNA [7]): 4.4 °C; Activity (SW-620 [8]): Active; Activity (SW-620 [9]): Active; Activity (HeLa [10]): 45.7%; Activity (HeLa [13]): inactive; Activity (SW-620 [14]): inactive; Activity [15]: Active; Activity (SW-620 [18]): 33.9%; Activity (HeLa [19]): Active; Activity (SW-620 [20]): Active; Activity (SW-620 [22]): inactive
2 | Cl.Cl.c1ccc2c(c1)CN(c1nc3ccc(C4=NCCN4)cc3[nH]1)/C2=N/c1nc2ccc(C3=NCCN3)cc2[nH]1 | 22.9 | Active | 15.4 | 23.4 | 80.2 | Active | Active | 9.01 | 18.5 | 35 | 9.3 | Drug uptake [23]: Active; fold change (FC) [24]: 1.8; inhibition (qualitative) [25]: Active
